Measured values reported in patent US20120071459A1, “BIS-PYRIDYLPYRIDONES AS MELANIN-CONCENTRATING HORMONE RECEPTOR 1 ANTAGONISTS” (GlaxoSmithKline LLC, priority 2009, published 2012).

Biological target: T1, hMCHR1 (Homo sapiens, UniProt Q99705)
T1 construct: expressed in transfected cells; host or cells: HEK293
Experiment: MCHR1 pIC50 Determination FLIPR Assay
Format: cell-based
Settings: HEK293 cells stably transfected with hMCHR1; MCH challenge at 4xEC50; in at least one experimental run
Description: MCHR1 pIC50 Determination FLIPR™ Assay: HEK293 cells stably transfected with hMCHR1 were propagated as adherent cultures at 37° C. in a humidified incubator. Cells were split 1:8 at 90% confluency two times per week. New cell stocks were recovered from storage every two months. Cells were plated in black 384-well plates (Greiner) 24 hours prior to assay at 15,000 cells/well in 50 μL DMEM/F12, 10% FBS, 2 mM l-glutamine. Compounds to be profiled were prepared by making a stock solution at 3×10^−3M in 100% DMSO. The stock solutions were serially diluted 1:4 in 100% DMSO using JANUS (PerkinElmer) liquid handling instrument to allow for an 11 point curve in singlicate. At the time of the assay, the media was removed from the cell plate by aspiration, followed by the addition of 20 μL of loading buffer (Calcium 4 Kit, […]). Following 50 min incubation at 37° C., 10 μL of compound was added to the plates via the FLIPR™ instrument ([…]). The plates were incubated at room temperature for 15 minutes along with an MCH peptide agonist challenge plate. On the FLIPR™, a basal response was collected over 10 seconds followed by the addition of 10 μL of MCH challenge concentration at 4×EC50. Data was collected over 4 minutes and subjected to a nonlinear regression analysis curve fitting program to generate pIC50s.

T1 sequence (Q99705 whole entry): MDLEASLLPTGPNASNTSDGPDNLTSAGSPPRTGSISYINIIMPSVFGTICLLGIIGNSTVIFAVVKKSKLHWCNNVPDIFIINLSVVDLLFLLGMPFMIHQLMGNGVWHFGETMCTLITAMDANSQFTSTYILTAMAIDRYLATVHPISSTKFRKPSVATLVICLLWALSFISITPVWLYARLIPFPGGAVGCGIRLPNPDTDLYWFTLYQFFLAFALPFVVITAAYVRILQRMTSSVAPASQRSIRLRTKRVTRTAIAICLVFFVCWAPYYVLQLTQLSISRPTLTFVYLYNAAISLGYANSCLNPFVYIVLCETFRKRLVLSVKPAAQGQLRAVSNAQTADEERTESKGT

Row | IC50 | Compound
1 | 0.049 µM | O=C1N(c2ccc(-n3ccc(OCc4ccc(Cl)cn4)cc3=O)cn2)CC12CCNCC2 [Example 4, 4-{[(5-chloro-2-pyridinyl)methyl]oxy}-6′-(1-oxo-2,7-diazaspiro[3.5]nonan-2-yl)-2H-1,3′-bipyridin-2-one]
2 | 0.05 µM | O=C1CC2(CCCN(c3ccc(-n4ccc(OCc5ccc(Cl)cn5)cc4=O)cn3)C2)C(=O)N1 (stereo not drawn) [Example 11]
3 | 0.054 µM | O=c1cc(OCc2ccc(Cl)cn2)ccn1-c1ccc(N2CCC3(CC2)CNC3)nc1 [Example 12]
